In patent US7271148B2, “Inhibition of cellular proteases” (The Board of Regents of The University of Texas System, priority 1999, dated 2007):

Test system: p21^cip1 abundance in HCMV-infected LU cells
Experiment: Western blot of p21cip1 abundance in HCMV-infected, density-arrested LU cells
Assay type: cell-based, human
Procedure: Cell culture and growth arrest. LU cells (3) were propagated in Eagle's minimum essential medium containing 10% fetal bovine serum and penicillin (100 units/ml)/streptomycin (100 μg/ml) in a 5% CO2 in air atmosphere. The cells were density-arrested as described previously in detail (18).
Virus stocks and productive infection. The AD169 strain of HCMV was propagated in LU cells as previously described in detail (6). The infectivity of virus stocks was determined by plaque assay (3). Virus stocks typically had infectivities between 8.0×10^6 and 4.0×10^7 plaque-forming units (PFU)/milliliter. LU cells were infected with HCMV as described in detail by Bresnahan et al. (18). Virus stocks and cell cultures were routinely examined for mycoplasma.
Western blots. Polyclonal or monoclonal antibody for p21^cip1 was obtained from Santa Cruz Biotechnology, Inc. (Santa Cruz, Calif.). Monoclonal antibodies against m-calpain, μ-calpain or calpastatin were generously provided by Dr. R. I. Mellgren (see also 75). Cells were harvested as described previously (18) by dislodging the cells with a cell lifter in phosphate buffered saline. The cells were collected by sedimentation and lysed in NP-40 lysis buffer [50 mM Tris, pH 7.4, 50 mM NaCl, 0.5% NP-40, and 1 mM NaVO3, 50 mM NaF, 1mM phenylmethylsulfonyl fluoride (PMSF), 1 mM dithiothreitol (DTT), 25 μg/ml trypsin inhibitor, 25 μg/ml aprotinin, 1 mM benzamide, and 25 μg/ml pepstatin A added just before use]. Cellular debris was removed by sedimentation and the supernatant fluids were reserved. The protein concentration was determined by the BCA protein assay (Pierce, Rockford, Ill.). Whole cell extracts (40 μg/lane) were fractionated by SDS-polyacrylamide gel electrophoresis (PAGE), and the polypeptides were transferred to nitrocellulose membranes (Bio-Rad Laboratories, Hercules, Calif.) as described previously (18). Antigen-antibody reactions were detected with the enhanced chemiluminescent assay (Amersham Pharmacia Biotech) following the manufacturer's recommendations. […]
FIGS. 9 and 10. The concentration effect of E64d on p21^cip1 abundance in HCMV-infected cells. 9: LU cells were density arrested as described in Materials and Methods. The cells were HCMV (5 PFU/cell) or mock infected, and at 48 hr PI were treated with selected concentrations of E64d. Whole cell lysates were prepared 6 hr later, and 40 μg of protein from each lysate was resolved by SDS-PAGE. The proteins were transferred to nitrocellulose and probed with antibodies to p21^cip1. Mock: mock-infected cells in the absence of drug. Control, untreated HCMV-infected cells. 0, DMSO solvent control, consisting of HCMV-infected cells treated with the same concentration of DMSO solvent (0.1%) contained in the highest concentration of E64d. 10: Represents the abundance of p21^cip1 determined by densitometric analysis of the data in FIG. 9.
FIGS. 11 and 12. The concentration effect of Z-Leu-Leu-H on p21^cip1 abundance in HCMV-infected cells. 11. LU cells were density arrested as described in Materials and Methods. The cells were HCMV (5 PFU/cell) infected, and at 48 hr PI were treated with selected concentrations of Z-Leu-Leu-H. Whole cell lysates were prepared 6 hr later, and 40 μg of protein from each lysate was resolved by SDS-PAGE. The proteins were transferred to nitrocellulose and probed with antibodies to p21^cip1. Mock, Control, and 0 are defined as in the legend to FIG. 9. 12 : Represents the abundance of p21^cip1 determined by densitometric analysis of the data in FIG. 11.
FIGS. 13 and 14. The time course for the effect of E64d on p21^cip1 abundance in HCMV-infected, density-arrested cells. 13: LU cells were density arrested, as described in Materials and Methods. The cells were HCMV (5 PFU/cell) or mock infected, and at the intervals indicated in the Fig., beginning 1 hr after infection, subsets of the cells were treated with E64d (100 μM). […]

## CC(C)C[C@H](NC(=O)[C@H]1O[C@@H]1C(=O)O)C(=O)NCCCCN=C(N)N (relative stereo) [E64d, trans-epoxysuccinyl-L-leucylamido (4-guanidino)-butane]
100 μM, HCMV-infected cells treated at 48 hr PI, lysates 6 hr later
  p21^cip1 abundance as % of that measured in mock-infected cells: about 85%
E64d 100 μM from 48 hr PI, HCMV-infected cells, after 12 hr of treatment
  increase in the abundance of p21^cip1: 4 fold
E64d 100 μM from 48 hr PI, HCMV-infected cells, up to 24 hr treatment
  maximum level of p21^cip1 relative to that observed at 0 hr: about 84%
E64d 100 μM up to 12 hr before harvest, HCMV-infected cells, 3 hr to 96 hr PI
  p21^cip1 levels versus absence of inhibitor over time course of infection (in words): consistently greater
HCMV-infected cells treated at 48 hr PI for 6 hr, selected concentrations up to 100 μM
  protection of p21^cip1, concentration effect (in words): directly dependent on the concentration
